Data published in patent US8362018B2, “Substituted imidazo[1,2-a]pyrazine compounds useful for the treatment of viral infections” (Biofocus DPI, Ltd., priority 2007, dated 2013).

Assays:
HCV replicon = assay: anti-viral assay (EC50), Table 13; format: cell-based; conditions: anti-viral assays
Text: The ability of a compound to inhibit HCV replication can be measured in vitro or using animal models using models and assays well known to those of skill in the art (e.g. Pietschmann et al, Clin Liver Dis. 7(1)c23-43, 2003). In vitro techniques for measuring the ability of a compound to inhibit HCV replication involve using HCV or an HCV replicon. Because HCV is difficult to grow in culture, particular in vitro techniques employ an HCV replicon.
An HCV replicon is an RNA molecule able to autonomously replicate in a cultured cell, such as Huh7. The HCV replicon expresses the HCV derived components of the replication machinery and contains cis-elements required for replication in a cultured cell. […]

[1] = cytotoxicity measurement (CC50), Table 13; format: cell-based; conditions: human, Huh7 cells
Huh7 = assay: cytotoxicity measurement (CC50), Table 13; format: cell-based
HRV-14 = assay: antiviral activity, HRV-14 in HeLa cells (Table 15); format: cell-based, human rhinovirus 14 (HRV-14); conditions: Rhinovirus B, HRV14; HRV-14 (HeLa cells)
HeLa cells = assay: cytotoxicity CC50 in HeLa cells (Table 15); format: cell-based
[2] = cytotoxicity CC50 in HeLa cells (Table 15); format: cell-based; conditions: human, HRV-2 column
HRV clinical isolate = assay: antiviral activity, HRV clinical isolate in HeLa cells (Table 15); format: cell-based, human rhinoviruses (HRV); conditions: Enterovirus
HRV-2 = assay: antiviral activity, HRV-2 in HeLa cells (Table 15); format: cell-based, human rhinoviruses (HRV); conditions: Rhinovirus A, HRV2; HRV-2 (HeLa cells)

SMILES: NS(=O)(=O)c1ccc(CNc2nccn3c(-c4ccccc4)cnc23)cc1 [Compound 74]
- EC50 (HCV replicon; Hepatitis C virus): 1 to 20 µM
- CC50 [1]: < 35 µM

SMILES: NS(=O)(=O)c1ccc(CNc2nccn3c(-c4cccc(CO)c4)cnc23)cc1 [Compound 75]
- EC50 (HCV replicon; Hepatitis C virus): 1 to 20 µM
- CC50 [1]: < 35 µM

SMILES: Oc1cccc(-c2cnc3c(NCc4cccnc4)nccn23)c1 [Compound 76]
- EC50 (HCV replicon; Hepatitis C virus): 1 to 20 µM
- CC50 [1]: < 35 µM

SMILES: CS(=O)(=O)Nc1cccc(-c2cnc3c(NCc4cccnc4)nccn23)c1 [Compound 77]
- EC50 (HCV replicon; Hepatitis C virus): 1 to 20 µM
- CC50 [1]: < 35 µM

SMILES: COCCCNc1nccn2c(-c3ccc(OC)c(OC)c3)cnc12 [Compound 78]
- EC50 (HCV replicon; Hepatitis C virus): 1 to 20 µM
- CC50 [1]: < 35 µM

SMILES: OCc1ccc(-c2cnc3c(NCc4ccc(F)cc4)nccn23)cc1 [Compound 79]
- EC50 (HCV replicon; Hepatitis C virus): 1 to 20 µM
- CC50 [1]: < 35 µM

SMILES: Oc1cccc(-c2cnc3c(NCc4cccs4)nccn23)c1 [Compound 80]
- EC50 (HCV replicon; Hepatitis C virus): 1 to 20 µM
- CC50 [1]: < 35 µM

SMILES: OCc1ccc(-c2cnc3c(NCc4ccc5c(c4)OCO5)nccn23)cc1 [Compound 81]
- EC50 (HCV replicon; Hepatitis C virus): 1 to 20 µM
- CC50 [1]: < 35 µM

SMILES: Oc1ccc(Nc2nccn3c(-c4cccc(F)c4)cnc23)cc1 [Compound 82]
- EC50 (HCV replicon; Hepatitis C virus): 1 to 20 µM
- CC50 [1]: < 35 µM

SMILES: COc1ccc(CNc2nccn3c(-c4cccc(NS(C)(=O)=O)c4)cnc23)cc1 [Compound 83]
- EC50 (HCV replicon; Hepatitis C virus): 1 to 20 µM
- CC50 [1]: < 35 µM

SMILES: CC(=O)c1cccc(-c2cnc3c(NCCc4cccnc4)nccn23)c1 [Compound 84]
- EC50 (HCV replicon; Hepatitis C virus): 1 to 20 µM
- CC50 [1]: < 35 µM

SMILES: Oc1cccc(-c2cnc3c(NCCc4cccnc4)nccn23)c1 [Compound 85]
- EC50 (HCV replicon; Hepatitis C virus): 1 to 20 µM
- CC50 [1]: < 35 µM

SMILES: COc1ccccc1-c1cnc2c(NCc3ccc(S(N)(=O)=O)cc3)nccn12 [Compound 86]
- EC50 (HCV replicon; Hepatitis C virus): 1 to 20 µM
- CC50 [1]: < 35 µM

SMILES: CC(=O)Nc1cccc(-c2cnc3c(NCc4ccc(S(N)(=O)=O)cc4)nccn23)c1 [Compound 87]
- EC50 (HCV replicon; Hepatitis C virus): 1 to 20 µM
- CC50 [1]: < 35 µM

SMILES: Cc1cc(-c2cnc3c(NCc4ccc(S(N)(=O)=O)cc4)nccn23)ccc1O [Compound 88, 4-{[3-(4-Hydroxy-3-methyl-phenyl)-imidazo[1,2-a]pyrazin-8-ylamino]-methyl}-benzenesulfonamide]
- EC50 (HCV replicon; Hepatitis C virus): < 1 µM
- CC50 [1]: > 35 µM

SMILES: NS(=O)(=O)c1ccc(CNc2nccn3c(-c4ccc(O)c(O)c4)cnc23)cc1 [Compound 89]
- EC50 (HCV replicon; Hepatitis C virus): > 20 µM
- CC50 [1]: > 35 µM

SMILES: NS(=O)(=O)c1ccc(CNc2nccn3c(-c4ccc(O)cc4F)cnc23)cc1 [Compound 91, 4-{[3-(2-Fluoro-4-hydroxy-phenyl)-imidazo[1,2-a]pyrazin-8-ylamino]-methyl}-benzenesulfonamide]
- EC50 (HCV replicon; Hepatitis C virus): < 1 µM
- CC50 [1]: > 35 µM

SMILES: COc1ccc(-c2cnc3c(NCc4ccc(C(=O)O)cc4)nccn23)cc1OC [Compound 92, 4-{[3-(3,4-Dimethoxy-phenyl)-imidazo[1,2-a]pyrazin-8-ylamino]-methyl}-benzoic acid]
- EC50 (HCV replicon; Hepatitis C virus): 1 to 20 µM
- CC50 [1]: > 35 µM

SMILES: COc1ccc(-c2cnc3c(NCc4ccc(CO)cc4)nccn23)cc1OC [Compound 93, (4-{[3-(3,4-Dimethoxy-phenyl)-imidazol[1,2-a]pyrazin-8-ylamino]-methyl}-phenyl)-methanol]
- EC50 (HCV replicon; Hepatitis C virus): 1 to 20 µM
- CC50 [1]: > 35 µM

SMILES: NC(=O)c1cc(-c2cnc3c(NCc4ccc(S(N)(=O)=O)cc4)nccn23)ccc1O [Compound 94, 2-Hydroxy-5-[8-(4-sulfamoyl-benzylamino)-imidazo[1,2-a]pyrazin-3-yl]-benzamide]
- EC50 (HCV replicon; Hepatitis C virus): 1 to 20 µM
- CC50 [1]: > 35 µM

SMILES: NS(=O)(=O)c1cccc(CNc2nccn3c(-c4ccc(O)cc4)cnc23)c1 [Compound 95, 3-{[3-(4-Hydroxy-phenyl)-imidazol[1,2-a]pyrazin-8-ylamino]-methyl}-benzenesulfonamide]
- EC50 (HCV replicon): 1 to 20 µM
- CC50 (Huh7): < 35 µM

SMILES: Oc1ccc(-c2cnc3c(Nc4ccccc4)nccn23)cc1 [Compound 96]
- EC50 (HCV replicon; Hepatitis C virus): > 20 µM
- CC50 [1]: > 35 µM

SMILES: COc1ccc(-c2cnc3c(NCc4ccc(Cl)cc4)nccn23)cc1OC [Compound 97]
- EC50 (HCV replicon; Hepatitis C virus): 1 to 20 µM
- CC50 [1]: < 35 µM

SMILES: CC(C)(C)c1ccc(CNc2nccn3c(-c4ccc(O)cc4)cnc23)cc1 [Compound 98]
- EC50 (HCV replicon; Hepatitis C virus): 1 to 20 µM
- CC50 [1]: < 35 µM

SMILES: Oc1ccc(-c2cnc3c(NCc4cccc(Cl)c4)nccn23)cc1 [Compound 99]
- EC50 (HCV replicon; Hepatitis C virus): 1 to 20 µM
- CC50 [1]: < 35 µM

SMILES: CNS(=O)(=O)c1ccc(CNc2nccn3c(-c4ccc(OC)cc4)cnc23)cc1 [Compound 100]
- EC50 (HCV replicon; Hepatitis C virus): 1 to 20 µM
- CC50 [1]: > 35 µM

SMILES: CCNS(=O)(=O)c1ccc(CNc2nccn3c(-c4ccc(OC)cc4)cnc23)cc1 [Compound 101]
- EC50 (HCV replicon; Hepatitis C virus): 1 to 20 µM
- CC50 [1]: > 35 µM

SMILES: CCNS(=O)(=O)c1ccc(CNc2nccn3c(-c4ccc(O)cc4)cnc23)cc1 [Compound 102]
- EC50 (HCV replicon; Hepatitis C virus): 1 to 20 µM
- CC50 [1]: > 35 µM

SMILES: CNS(=O)(=O)c1ccc(CNc2nccn3c(-c4ccc(O)cc4)cnc23)cc1 [Compound 103]
- EC50 (HCV replicon; Hepatitis C virus): 1 to 20 µM
- CC50 [1]: > 35 µM

SMILES: Cc1nc2c(NCc3ccc(S(N)(=O)=O)cc3)nccn2c1-c1ccc(O)cc1 [Compound 104, 4-{[3-(4-Hydroxy-phenyl)-2-methyl-imidazo[1,2-a]pyrazin-8-ylamino]-methyl}-benzenesulfonamide]
- EC50 (HCV replicon; Hepatitis C virus): 1 to 20 µM
- CC50 [1]: > 35 µM

SMILES: COc1cc(-c2c(C)nc3c(NCc4ccc(S(N)(=O)=O)cc4)nccn23)ccc1O [Compound 105]
- EC50 (HCV replicon; Hepatitis C virus): < 1 µM
- CC50 [1]: > 35 µM

SMILES: Cc1nc2c(NCc3ccc(S(N)(=O)=O)cc3)nccn2c1-c1ccc(O)c(F)c1 [Compound 106]
- EC50 (HRV-14): < 1 mg/L
- CC50(μg/mL) (HeLa cells; HRV clinical isolate column): * (>35 μg/mL)
- CC50(μg/mL) (HeLa cells; HRV-14 column): * (>35 μg/mL)
- CC50 [2]: > 35 mg/L
- EC50 (HCV replicon; Hepatitis C virus): < 1 µM
- EC50 (HRV clinical isolate): < 1 mg/L
- EC50 (HRV-2): < 1 mg/L
- CC50 [1]: > 35 µM

SMILES: Cc1nc2c(NCc3ccc(S(N)(=O)=O)cc3)nccn2c1-c1ccc(O)c([N+](=O)[O-])c1 [Compound 107]
- EC50 (HCV replicon; Hepatitis C virus): 1 to 20 µM
- CC50 [1]: > 35 µM

SMILES: Cc1cnc(NCc2ccc(S(N)(=O)=O)cc2)c2ncc(-c3ccc(O)cc3)n12 [Compound 108, 4-{[3-(4-Hydroxy-phenyl)-5-methyl-imidazo[1,2-a]pyrazin-8-ylamino]-methyl}-benzenesulfonamide]
- EC50 (HCV replicon; Hepatitis C virus): < 1 µM
- CC50 [1]: < 35 µM

SMILES: COc1cc(-c2cnc3c(NCc4ccc(S(N)(=O)=O)cc4)ncc(C)n23)ccc1O [Compound 109]
- EC50 (HCV replicon; Hepatitis C virus): < 1 µM
- CC50 [1]: < 35 µM

SMILES: Cc1cn2c(-c3ccc(O)cc3)cnc2c(NCc2ccc(S(N)(=O)=O)cc2)n1 [Compound 110, 4-{[3-(4-Hydroxy-phenyl)-6-methyl-imidazo[1,2-a]pyrazin-8-ylamino]-methyl}-benzenesulfonamide]
- EC50 (HCV replicon; Hepatitis C virus): < 1 µM
- CC50 [1]: < 35 µM

SMILES: Cc1cn2c(-c3ccc(O)c(F)c3)cnc2c(NCc2ccc(S(N)(=O)=O)cc2)n1 [Compound 111]
- EC50 (HCV replicon; Hepatitis C virus): < 1 µM
- CC50 [1]: > 35 µM

SMILES: COc1cc(-c2cnc3c(NCc4ccc(S(N)(=O)=O)cc4)nc(C)cn23)ccc1O [Compound 112]
- EC50 (HCV replicon; Hepatitis C virus): < 1 µM
- CC50 [1]: < 35 µM

SMILES: NS(=O)(=O)c1ccc(CNc2nc(Br)cn3c(Br)cnc23)cc1 [Compound 113, 4-[(3,6-Dibromo-imidazo[1,2-a]pyrazin-8-ylamino)-methyl]-benzenesulfonamide]
- EC50 (HCV replicon; Hepatitis C virus): > 20 µM
- CC50 [1]: > 35 µM

SMILES: NS(=O)(=O)c1ccc(CNc2nc(-c3ccc(O)cc3)cn3c(-c4ccc(O)cc4)cnc23)cc1 [Compound 114, 4-{[3,6-Bis-(4-hydroxy-phenyl)-imidazo[1,2-a]pyrazin-8-ylamino]-methyl}-benzenesulfonamide]
- EC50 (HCV replicon; Hepatitis C virus): < 1 µM
- CC50 [1]: < 35 µM
